# In paper PMC9005681, “Use of AD Informer Set compounds to explore validity of novel targets in Alzheimer's disease pathology” (Alzheimer's & Dementia : Translational Research & Clinical …, 2022):
# Several values for one entry are separate records, joined by “and”; a condition that tells them apart may be missing. Equal entries are not always repeated.
# Experiments:
# [1] = tested on: cellular system; parameters: method as in column References for potency and dosing (the 5th table c13); conditions: published data; References for potency and dosing; cited from earlier work
# [2] = biological target: T1, cloned human or rodent CNS receptors, channels, and transporters (PDSP panel) (Homo sapiens, UniProt P23975); experiment: PDSP GPCR panel primary binding assays at 10 μM; conditions: Receptor NET, primary assay, 10 μM
# T1 construct: expressed in transfected cells
# T1 sequence (P23975 whole entry): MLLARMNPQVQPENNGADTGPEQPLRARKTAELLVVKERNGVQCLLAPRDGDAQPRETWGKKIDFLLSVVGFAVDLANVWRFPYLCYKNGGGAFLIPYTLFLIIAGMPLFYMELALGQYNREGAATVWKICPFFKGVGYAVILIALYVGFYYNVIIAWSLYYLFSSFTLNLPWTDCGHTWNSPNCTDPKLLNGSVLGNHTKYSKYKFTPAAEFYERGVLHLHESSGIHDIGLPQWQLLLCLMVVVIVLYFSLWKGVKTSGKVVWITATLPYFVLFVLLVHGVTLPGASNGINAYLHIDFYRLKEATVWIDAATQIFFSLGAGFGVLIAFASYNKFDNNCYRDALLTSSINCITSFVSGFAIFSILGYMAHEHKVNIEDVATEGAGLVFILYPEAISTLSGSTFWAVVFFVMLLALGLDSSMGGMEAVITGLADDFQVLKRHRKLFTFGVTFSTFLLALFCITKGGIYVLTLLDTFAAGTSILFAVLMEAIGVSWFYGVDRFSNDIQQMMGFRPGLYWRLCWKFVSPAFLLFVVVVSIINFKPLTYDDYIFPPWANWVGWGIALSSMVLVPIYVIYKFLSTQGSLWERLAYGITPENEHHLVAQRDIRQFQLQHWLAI
# Procedure: (§1) GPCR panel: Screening against the receptors within the PDSP panel offers an assessment of off-target pharmacological activity at cloned human or rodent CNS receptors, channels, and transporters that could confound CNS-related phenotypes. A total of 46–47 primary binding assays were run in quadruplicate on these compounds at 10 μM, with follow-up secondary binding assays in 11-point dose-response in triplicate for select compounds versus select receptors. Secondary binding assays were executed for all receptors where test compound displaced an average of >50% of radio-labeled standard ligand. As an exception, no secondary assays were carried out for H3, PBR, or GABAA. […]
# [3] = biological target: T2, cloned human or rodent CNS receptors, channels, and transporters (PDSP panel) (Homo sapiens, UniProt P35372); experiment: PDSP GPCR panel primary binding assays at 10 μM; conditions: Receptor MOR, primary assay, 10 μM
# T2 construct: expressed in transfected cells
# T2 sequence (P35372 whole entry): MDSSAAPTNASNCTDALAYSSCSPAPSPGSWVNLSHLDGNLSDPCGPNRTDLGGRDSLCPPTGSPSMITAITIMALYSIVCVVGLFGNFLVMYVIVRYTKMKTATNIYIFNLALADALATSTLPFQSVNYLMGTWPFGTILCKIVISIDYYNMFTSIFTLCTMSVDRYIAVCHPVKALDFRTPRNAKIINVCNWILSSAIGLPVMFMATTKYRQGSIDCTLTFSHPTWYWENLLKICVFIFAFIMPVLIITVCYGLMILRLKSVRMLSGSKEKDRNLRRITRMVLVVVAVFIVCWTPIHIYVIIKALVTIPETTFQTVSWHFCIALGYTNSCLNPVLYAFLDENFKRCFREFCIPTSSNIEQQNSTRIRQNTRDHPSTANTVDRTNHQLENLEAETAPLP
# Procedure: as §1
# [4] = biological target: T3, cloned human or rodent CNS receptors, channels, and transporters (PDSP panel) (Homo sapiens, UniProt P47898); experiment: PDSP GPCR panel primary binding assays at 10 μM; conditions: Receptor 5-HT5A, primary assay, 10 μM
# T3 construct: expressed in transfected cells
# T3 sequence (P47898 whole entry): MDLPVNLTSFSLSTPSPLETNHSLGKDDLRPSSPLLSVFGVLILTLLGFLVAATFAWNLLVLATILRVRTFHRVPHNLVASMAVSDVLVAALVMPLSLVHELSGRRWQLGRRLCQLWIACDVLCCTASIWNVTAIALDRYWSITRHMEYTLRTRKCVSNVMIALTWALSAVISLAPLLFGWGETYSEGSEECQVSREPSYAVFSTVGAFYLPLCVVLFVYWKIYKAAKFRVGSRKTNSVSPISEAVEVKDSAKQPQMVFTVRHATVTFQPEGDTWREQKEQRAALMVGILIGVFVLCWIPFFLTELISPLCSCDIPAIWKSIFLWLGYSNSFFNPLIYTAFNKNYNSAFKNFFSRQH
# Procedure: as §1
# [5] = biological target: T4, cloned human or rodent CNS receptors, channels, and transporters (PDSP panel) (Homo sapiens, UniProt P28221); experiment: PDSP GPCR panel primary binding assays at 10 μM; conditions: Receptor 5-HT1D, primary assay, 10 μM
# T4 construct: expressed in transfected cells
# T4 sequence (P28221 whole entry): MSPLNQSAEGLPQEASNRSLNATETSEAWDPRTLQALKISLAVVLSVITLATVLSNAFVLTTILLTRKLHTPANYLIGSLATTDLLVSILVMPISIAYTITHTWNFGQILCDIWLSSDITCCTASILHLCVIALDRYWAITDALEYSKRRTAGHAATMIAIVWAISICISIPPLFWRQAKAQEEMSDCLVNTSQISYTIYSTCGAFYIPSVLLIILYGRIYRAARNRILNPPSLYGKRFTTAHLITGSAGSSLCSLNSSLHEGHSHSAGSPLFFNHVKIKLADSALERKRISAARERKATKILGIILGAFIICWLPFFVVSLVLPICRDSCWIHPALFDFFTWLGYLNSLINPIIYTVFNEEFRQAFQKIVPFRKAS
# Procedure: as §1
# [6] = biological target: T5, cloned human or rodent CNS receptors, channels, and transporters (PDSP panel) (Homo sapiens, UniProt P34969); experiment: PDSP GPCR panel primary binding assays at 10 μM; conditions: Receptor 5-HT7A, primary assay, 10 μM
# T5 construct: expressed in transfected cells
# T5 sequence (P34969 whole entry): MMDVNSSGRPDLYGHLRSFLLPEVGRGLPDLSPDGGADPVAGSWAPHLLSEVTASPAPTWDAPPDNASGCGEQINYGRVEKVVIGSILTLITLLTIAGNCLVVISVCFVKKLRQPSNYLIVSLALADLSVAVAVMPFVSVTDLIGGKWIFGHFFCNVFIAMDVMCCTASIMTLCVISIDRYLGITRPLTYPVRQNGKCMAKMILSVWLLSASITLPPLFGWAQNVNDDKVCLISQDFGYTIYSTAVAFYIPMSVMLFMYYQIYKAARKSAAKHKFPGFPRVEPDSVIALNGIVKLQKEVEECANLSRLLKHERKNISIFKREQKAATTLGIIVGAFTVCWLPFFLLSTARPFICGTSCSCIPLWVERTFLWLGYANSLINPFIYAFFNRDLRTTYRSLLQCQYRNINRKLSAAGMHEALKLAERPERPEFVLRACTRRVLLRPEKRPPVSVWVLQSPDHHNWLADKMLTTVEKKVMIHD
# Procedure: as §1
# [7] = biological target: T6, cloned human or rodent CNS receptors, channels, and transporters (PDSP panel) (Homo sapiens, UniProt P46098); experiment: PDSP GPCR panel primary binding assays at 10 μM; conditions: Receptor 5-HT3, primary assay, 10 μM
# T6 construct: expressed in transfected cells
# T6 sequence (P46098 24-478): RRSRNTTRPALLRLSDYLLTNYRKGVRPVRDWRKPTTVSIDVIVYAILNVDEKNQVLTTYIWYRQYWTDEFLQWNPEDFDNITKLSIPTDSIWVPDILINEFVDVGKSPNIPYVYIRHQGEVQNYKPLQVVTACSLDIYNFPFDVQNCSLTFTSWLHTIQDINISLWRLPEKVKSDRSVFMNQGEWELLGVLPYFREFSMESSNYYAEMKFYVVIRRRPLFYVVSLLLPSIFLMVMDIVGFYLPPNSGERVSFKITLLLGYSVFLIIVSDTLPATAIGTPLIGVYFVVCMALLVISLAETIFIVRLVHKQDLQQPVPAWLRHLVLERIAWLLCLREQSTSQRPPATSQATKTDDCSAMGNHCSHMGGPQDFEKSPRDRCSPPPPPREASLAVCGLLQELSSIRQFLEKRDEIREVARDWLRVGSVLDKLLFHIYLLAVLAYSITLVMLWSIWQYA
# Procedure: as §1
# [8] = biological target: T7, cloned human or rodent CNS receptors, channels, and transporters (PDSP panel) (Homo sapiens, UniProt P08172); experiment: PDSP GPCR panel primary binding assays at 10 μM; conditions: Receptor M2, primary assay, 10 μM
# T7 construct: expressed in transfected cells
# T7 sequence (P08172 1-466): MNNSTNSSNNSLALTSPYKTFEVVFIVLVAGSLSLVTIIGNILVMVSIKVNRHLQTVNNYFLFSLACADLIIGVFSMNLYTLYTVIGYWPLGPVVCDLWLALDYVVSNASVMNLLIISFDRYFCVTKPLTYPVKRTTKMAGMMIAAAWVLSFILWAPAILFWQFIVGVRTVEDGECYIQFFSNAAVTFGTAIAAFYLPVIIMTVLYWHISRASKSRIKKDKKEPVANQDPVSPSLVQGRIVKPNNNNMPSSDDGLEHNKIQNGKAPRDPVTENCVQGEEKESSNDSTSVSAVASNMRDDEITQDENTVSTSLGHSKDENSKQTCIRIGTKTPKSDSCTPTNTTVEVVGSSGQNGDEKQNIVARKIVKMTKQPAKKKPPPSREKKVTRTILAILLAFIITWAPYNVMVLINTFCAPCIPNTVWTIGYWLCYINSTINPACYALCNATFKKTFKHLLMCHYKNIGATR
# Procedure: as §1
# [9] = biological target: T8, cloned human or rodent CNS receptors, channels, and transporters (PDSP panel) (Homo sapiens, UniProt P41595); experiment: PDSP GPCR panel primary binding assays at 10 μM; conditions: Receptor 5-HT2B, primary assay, 10 μM
# T8 construct: expressed in transfected cells
# T8 sequence (P41595 whole entry): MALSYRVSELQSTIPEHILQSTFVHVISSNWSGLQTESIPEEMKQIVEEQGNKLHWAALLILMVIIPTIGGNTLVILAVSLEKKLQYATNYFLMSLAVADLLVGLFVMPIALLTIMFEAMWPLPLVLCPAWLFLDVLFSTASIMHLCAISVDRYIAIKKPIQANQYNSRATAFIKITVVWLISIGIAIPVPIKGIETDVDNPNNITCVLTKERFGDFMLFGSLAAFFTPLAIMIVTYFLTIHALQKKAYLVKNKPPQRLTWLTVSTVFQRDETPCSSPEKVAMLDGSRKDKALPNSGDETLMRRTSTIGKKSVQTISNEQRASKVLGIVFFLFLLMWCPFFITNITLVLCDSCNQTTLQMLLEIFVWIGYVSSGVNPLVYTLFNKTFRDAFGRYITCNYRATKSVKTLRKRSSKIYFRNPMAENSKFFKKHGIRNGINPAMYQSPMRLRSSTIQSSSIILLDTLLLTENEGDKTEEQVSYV
# Procedure: as §1
# [10] = biological target: T9, cloned human or rodent CNS receptors, channels, and transporters (PDSP panel) (Homo sapiens, UniProt P21728); experiment: PDSP GPCR panel primary binding assays at 10 μM; conditions: Receptor D1, primary assay, 10 μM
# T9 construct: expressed in transfected cells
# T9 sequence (P21728 whole entry): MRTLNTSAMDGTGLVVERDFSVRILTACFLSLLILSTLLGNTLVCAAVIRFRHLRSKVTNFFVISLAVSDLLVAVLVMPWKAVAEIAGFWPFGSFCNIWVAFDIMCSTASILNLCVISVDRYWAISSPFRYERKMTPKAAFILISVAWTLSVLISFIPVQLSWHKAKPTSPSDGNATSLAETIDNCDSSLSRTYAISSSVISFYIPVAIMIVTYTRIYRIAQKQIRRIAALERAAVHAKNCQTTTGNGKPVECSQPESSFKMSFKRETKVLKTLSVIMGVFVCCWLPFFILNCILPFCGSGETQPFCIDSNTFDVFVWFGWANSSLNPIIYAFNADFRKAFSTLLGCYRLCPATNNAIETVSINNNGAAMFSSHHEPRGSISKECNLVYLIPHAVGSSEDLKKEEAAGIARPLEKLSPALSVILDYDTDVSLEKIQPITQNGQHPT
# Procedure: as §1
# [11] = biological target: T10, cloned human or rodent CNS receptors, channels, and transporters (PDSP panel) (Homo sapiens, UniProt P25021); experiment: PDSP GPCR panel primary binding assays at 10 μM; conditions: Receptor H2, primary assay, 10 μM
# T10 construct: expressed in transfected cells
# T10 sequence (P25021 whole entry): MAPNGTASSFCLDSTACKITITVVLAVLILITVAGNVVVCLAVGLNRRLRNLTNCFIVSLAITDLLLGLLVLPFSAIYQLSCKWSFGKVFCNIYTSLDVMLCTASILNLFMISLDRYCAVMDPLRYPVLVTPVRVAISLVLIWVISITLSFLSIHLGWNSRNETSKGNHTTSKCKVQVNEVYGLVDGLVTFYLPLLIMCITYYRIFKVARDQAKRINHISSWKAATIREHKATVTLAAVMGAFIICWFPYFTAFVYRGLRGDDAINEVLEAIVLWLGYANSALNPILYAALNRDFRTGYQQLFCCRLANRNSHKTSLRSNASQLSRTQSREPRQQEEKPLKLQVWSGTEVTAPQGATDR
# Procedure: as §1
# [12] = cited from earlier work
compound,measurement,setting,value
"c1cn2cc(-c3ccc4cn[nH]c4c3)nc(Nc3ccc(N4CCOCC4)cc3)c2n1 [UNC10302678A, Entospletinib (GS-9973)]",Reported as cell active (<10 μM),[1],Y (Published data supports that the compound is active in a cellular system when dosed at 10 μM (Y/N))
same,Inhibition 1,[2],-3.87% and -2.7%
same,Inhibition 2,[2],-11.22% and -16.36%
same,Inhibition 3,[2],-0.44% and -2.13%
same,Mean %,[2]; mean of Inhibition 1-4,1.02% and -6.36%
same,Inhibition 1,[3],-0.9%
same,Inhibition 2,[3],12.23%
same,Inhibition 3,[3],5.91%
same,Inhibition 4,[3],-3.58%
same,Mean %,[3]; mean of Inhibition 1-4,3.42%
same,Inhibition 1,[4],7.17%
same,Inhibition 2,[4],-43.49%
same,Inhibition 3,[4],-3.12%
same,Inhibition 4,[4],-6.68%
same,Mean %,[4]; mean of Inhibition 1-4,-11.53%
same,Inhibition 1,[5],30.71%
same,Inhibition 2,[5],10.31%
same,Inhibition 3,[5],-25.09%
same,Inhibition 4,[5],3.23%
same,Mean %,[5]; mean of Inhibition 1-4,4.79%
same,Inhibition 1,[6],7.05%
same,Inhibition 2,[6],11.23%
same,Inhibition 3,[6],9.37%
same,Inhibition 4,[6],35.72%
same,Mean %,[6]; mean of Inhibition 1-4,15.84%
same,Inhibition 1,[7],20.59%
same,Inhibition 2,[7],12.98%
same,Inhibition 3,[7],21.06%
same,Inhibition 4,[7],14.69%
same,Mean %,[7]; mean of Inhibition 1-4,17.33%
same,Inhibition 1,[8],-17.67%
same,Inhibition 2,[8],-16.44%
same,Inhibition 3,[8],-12.26%
same,Inhibition 4,[8],-13.73%
same,Mean %,[8]; mean of Inhibition 1-4,-15.03%
same,Inhibition 1,[9],61.2%
same,Inhibition 2,[9],0.79%
same,Inhibition 3,[9],-21.45%
same,Inhibition 4,[9],15.05%
same,Mean %,[9]; mean of Inhibition 1-4,13.9%
same,Inhibition 1,[10],2.51%
same,Inhibition 2,[10],-3%
same,Inhibition 3,[10],-32.95%
same,Inhibition 4,[10],7.37%
same,Mean %,[10]; mean of Inhibition 1-4,-6.52%
same,Inhibition 1,[11],34.86%
same,Inhibition 2,[11],31.07%
same,Inhibition 3,[11],0.58%
same,Inhibition 4,[11],-19.99%
same,Mean %,[11]; mean of Inhibition 1-4,11.63%
same,Kinetic solubility,"[12]; aqueous, neutral pH (7.4)",0.5 µM
same,Kinetic solubility (in words),[12]; kinetic solubility experiments,solubility issues
